Results from patent US20020111282A1, “Antimicrobial compositions containing quaternary ammonium compounds, silanes and other disinfectants with furanones” (priority 2000, published 2002).

Tests used:
[1] = test system: Cladosporium cladosporioides; experiment: Zone of inhibition assay on TLC plates overlaid with agar containing fungal spores; type: cell-based; settings: 10 μl spotted
Method: (§1) Fungi used: Alternaria alternata, Aureobasidium pullulans, Cladosporium cladosporioides, Penicillium digitatum Method: Base formulas for A, B, C and D were prepared as described in Table 1 below. Subsequently, test solutions were prepared either by: (1) taking a furanone or a base formula alone; or (2) by adding small amounts of suitably solubilized furanone (i.e., normally using ethanol) to a base formula so as to deliver a series of furanone concentrations in the test solutions (i.e., 10 ug/ml, 5 ug/ml, 1 ug/ml, 500 ng/ml, 100 ng/ml and 10 ng/ml). […] The various test solutions are set out at the left-hand margin of Tables 2A to 2D and can be described as follows: Once the test solutions were prepared, 10 μl of each test solution was spotted onto TLC plates. The plates were overlaid with agar containing fungal spores. The TLC plates were incubated in a high humidity environment until growth could be observed visually. At inhibitory furanone concentrations, a zone of inhibition where no fungal growth was observed formed above the test solution spot. Lower furanone concentrations resulting in a zone of inhibition correspond to higher test solution efficacy.

[2] = test system: Alternaria alternata; experiment: as above; type: cell-based; settings: 10 μl spotted
Method: as §1

[3] = test system: Penicillium digitatum; experiment: as above; type: cell-based; settings: 10 μl spotted
Method: as §1

[4] = test system: Aureobasidium pullulans; experiment: as above; type: cell-based; settings: 10 μl spotted
Method: as §1

[5] = Solubility in water; type: physicochemical
[6] = 10 ng/ml furanone in test solution
[7] = 100 ng/ml furanone in test solution
[8] = 500 ng/ml furanone in test solution
[9] = 1 μg/ml furanone in test solution
[10] = 5 μg/ml furanone in test solution
[11] = 10 μg/ml furanone in test solution

SMILES: O=C1C=C(Br)/C(=C/Br)O1 [Furanone 30]
- Zone of Inhibition with 10 ng/ml of Furanone (mm) [1, 6]: 0 mm
- Zone of Inhibition with 100 ng/ml of Furanone (mm) [1, 7]: 9-10 mm
- Zone of Inhibition with 500 ng/ml of Furanone (mm) [1, 8]: 20-21 mm
- Zone of Inhibition with 1 μg/ml of Furanone (mm) [1, 9]: 20-30 mm
- Zone of Inhibition with 5 μg/ml of Furanone (mm) [1, 10]: 40-45 mm
- Zone of Inhibition with 10 μg/ml of Furanone (mm) [1, 11]: 42-56 mm
- Zone of Inhibition with 10 ng/ml of Furanone (mm) [2, 6]: 0 mm
- Zone of Inhibition with 100 ng/ml of Furanone (mm) [2, 7]: 2-3 mm
- Zone of Inhibition with 500 ng/ml of Furanone (mm) [2, 8]: 3-4 mm
- Zone of Inhibition with 5 μg/ml of Furanone (mm) [2, 10]: 35-37 mm
- Zone of Inhibition with 10 μg/ml of Furanone (mm) [2, 11]: 40-42 mm
- Zone of Inhibition with 10 ng/ml of Furanone (mm) [3, 6]: 0 mm
- Zone of Inhibition with 100 ng/ml of Furanone (mm) [3, 7]: 0 mm
- Zone of Inhibition with 500 ng/ml of Furanone (mm) [3, 8]: 10-19 mm
- Zone of Inhibition with 1 μg/ml of Furanone (mm) [3, 9]: 12-15 mm
- Zone of Inhibition with 10 μg/ml of Furanone (mm) [3, 11]: 32-45 mm
- Zone of Inhibition with 10 ng/ml of Furanone (mm) [4, 6]: 0 mm
- Zone of Inhibition with 100 ng/ml of Furanone (mm) [4, 7]: 0 mm
- Zone of Inhibition with 500 ng/ml of Furanone (mm) [4, 8]: 0 mm
- Zone of Inhibition with 1 μg/ml of Furanone (mm) [4, 9]: 0 mm
- Zone of Inhibition with 5 μg/ml of Furanone (mm) [4, 10]: 3-10 mm
- Zone of Inhibition with 10 μg/ml of Furanone (mm) [4, 11]: 15-17 mm
- Solubility in water [5]: sparingly soluble in water
